# According to patent US20030055046A1, “Novel pyrido cyclohexenyl phenyl carboxamides tocolytic oxytocin receptor antagonists” (Wyeth, priority 2001, published 2003):
# Structures can show the parent of a compound that is named as a salt.
# Columns and labels:
# [1] = target: T1, human oxytocin receptor (Homo sapiens, UniProt P30559); test: Oxytocin binding in CHO cell membranes expressing human oxytocin receptors; details: [3H]oxytocin; for IC50: value in parentheses, read-out: OT IC50
# T1 construct: host or cells: CHO cells, stably transfected (pcDNA3.1 vector)
# T1 sequence (P30559 1-389): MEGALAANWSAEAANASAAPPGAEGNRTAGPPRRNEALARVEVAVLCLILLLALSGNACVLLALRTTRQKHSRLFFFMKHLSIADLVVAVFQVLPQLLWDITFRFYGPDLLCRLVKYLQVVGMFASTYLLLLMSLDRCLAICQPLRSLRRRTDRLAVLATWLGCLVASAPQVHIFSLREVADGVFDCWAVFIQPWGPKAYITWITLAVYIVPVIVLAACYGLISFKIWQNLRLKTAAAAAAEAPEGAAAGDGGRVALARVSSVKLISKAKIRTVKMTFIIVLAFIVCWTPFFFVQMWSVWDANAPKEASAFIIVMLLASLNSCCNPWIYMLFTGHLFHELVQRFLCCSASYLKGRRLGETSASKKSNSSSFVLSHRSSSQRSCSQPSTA
# Source text: Oxytocin binding in Chinese Hamster Ovary cell membranes expressing human oxytocin receptors
# Chinese Hamster Ovary (CHO) cells stably transfected with the human oxytocin (cf. Tanizawa et al., U.S. Pat. No. 5,466,584 (1995) to Rohto Pharmaceutical Co. Ltd., Osaka, Japan) were obtained from M. Thibonnier, Case Western Reserve University School of Medicine, Cleveland, Ohio.
# A. Passaging and Amplification of Cells:
# CHO cells transfected with the human oxytocin receptors obtained from M. Thibonnier (pcDNA3.1 vector) are allowed to grow to confluency (approx. >90%) in T-150 flasks under sterile conditions, in a cell culture medium consisting of F-12 Nutrient Mixture (HAM) with L-glutamine (Gibco Cat.# 11765-054) containing 15 mM HEPES (Gibco Cat.# 15630-080), 1% antibiotic/antimycotic (add 5 mL 100×, Gibco Cat.# 15240-062 per 500 mL F-12), 400 μg/mL of Geneticin (add 4 mL of 50 mg/mL per 500 mL F-12) and 10% Fetal Bovine Serum (Qualified, heat inactivated, Gibco Cat.# 16140-063). The medium is removed by aspiration and the cells are washed with 10 mL of Hank's Balanced Salt solution (Gibco Cat.# 14175-095). The salt solution is removed by aspiration and the cells trypsinized with 5 mL of trypsin-EDTA (0.05% trypsin, 0.53 mM EDTA-4Na, Gibco Cat.# 25300-070) for 1 min The trypsin is removed by aspiration and the cells dislodged by tapping. Cell Culture medium (e.g. 30 mL for 1:30 split) is immediately added and mixed well to inactivate trypsin. 1 mL of detached cells is added to new culture flasks containing fresh Cell Culture medium (e.g. into 25 mL per T-150 flask), and mixed gently. The cells are incubated at 37° C. in 5% CO2. The medium is changed at 3 to 4 days interval (or as appropriate). The cells grow to confluency (approx. >75%-95%) within 7-8 days. All steps are done under sterile conditions.
# The cells are washed twice gently with Hank's Balanced Salt solution (eg, use 10 mL per T-150 flask). The excess solution is removed and the cells bathed for 15-30 min. in an enzyme-free Cell Dissociation Buffer (eg, use 8 mL Hank's Based, Gibco Cat.# 13150-016 per T-150 flask) until cells are loosened. The contents are transferred to centrifuge tubes (50 mL size) kept in ice bath. All subsequent steps are done at 4° C. The tubes are centrifuged at 300×g for 15 min (1380 rpm on SORVAL, Model RT6000D, using rotor for 50 mL tubes). The supernatant is discarded and the cells suspended in homogenizing buffer (10 mM Tris-HCl containing 0.25 M sucrose and 1 mM EDTA, pH 7.4) ensuring that the volume of the buffer is about ten times the volume of the cell pellet. The cells are pooled into a centrifuge tube (50 mL) and homogenized with a Polytron at setting 6 for 10 sec. The homogenate is transferred into a Potter-Elvjehm homogenizer and homogenized with 3 strokes. The homogenate is centrifuged at 1500×g for 10 min at 4° C. (3100 rpm using SORVAL, model RT6000D, using rotor for 50 mL tubes). The pellet is discarded. The supernatant is centrifuged at 100,000×g for 60 min. at 4° C. (Beckman L8-80M ultracentrifuge; spin at 37,500 rpm with rotor type 70 Ti for 50 mL tubes; 38,000 rpm with type 80Ti for 15 mL tubes; or 35,800 rpm with rotor type 45Ti). The supernatant is discarded and the pellet suspended in 3 to 4 mL of Tris buffer (50 mM TRIS-HCl, pH 7.4). The protein content is estimated by the Bradford or Lowry method. The volume of the membrane suspension is adjusted with the membrane buffer (50 mM Tris-HCl containing 0.1 % BSA and 0.1 mM PMSF) to give 3.0 mg/mL (or as appropriate) of protein. The membranes are aliquoted and stored at −70° C.
# C. Radioligand Binding Assay:
# In wells of a 96-well format microtiter plate, is added 90, 110 or 130 μL (to make up a final volume of 200 μL) of assay buffer containing 50 mM of Tris-HCl (pH 7.4), […], 1 mg % aprotinin, 1 mg % leupeptin, 2 mg % 1,10-phenanthroline, 10 mg % trypsin inhibitor, and 0.1 mM PMSF. […]
Compound,OT % inhibition @ 100 nM [1],IC50 [1],melting point
"Cc1cc(C(=O)N2Cc3ccc(C(=O)NCc4ccncc4)n3Cc3ccccc32)ccc1C1=CCCCC1 [Example 10, 10-[4-(1-Cyclohex-1-en-1-yl)-3-methylbenzoyl]-N-(4-pyridinylmethyl)-10,11-dihydro-5H-pyrrolo[2,1-c][1,4]benzodiazepine-3-carboxamide]",45%,–,–
"Cc1cc(C(=O)N2Cc3ccc(C(=O)NCCc4ccccn4)n3Cc3ccccc32)ccc1C1=CCCCC1 [Example 7, 10-[4-(1-Cyclohex-1-en-1-yl)-3-methylbenzoyl]-N-[2-(2-pyridinyl)ethyl]-10,11-pyrrolo[2,1-c][1,4]benzodiazepine-3-carboxamide]",42%,–,–
"CC1=C(c2ccc(C(=O)N3Cc4ccc(C(=O)N(C)Cc5cccnc5)n4Cc4ccccc43)cc2C)CCC[C@H]1O [Example 3, 10-[4-((3R)-3-Hydroxy-2-methyl-cyclohex-1-en-1-yl)-3-methyl-benzoyl]-10,11-dihydro-5H-pyrrolo[2,1-c][1,4]benzodiazepine-3-carboxylic acid methyl-pyridin-3-yl methyl-amide]",96%,–,–
"Cc1cc(C(=O)N2Cc3ccc(C(=O)N4CCN(c5ccccn5)CC4)n3Cc3ccccc32)ccc1C1=CCCCC1 [Example 9, {10-[4-(1-Cyclohex-1-en-1-yl)-3-methylbenzoyl]-10,11-dihydro-5H-pyrrolo[2,1-c][1,4]benzodiazepin-3-yl}[4-(2-pyridinyl)-1-piperazinyl]methanone]",37%,–,–
"CC1=C(c2ccc(C(=O)N3Cc4ccc(C(=O)N(C)Cc5cccnc5)n4Cc4ccccc43)cc2C)CCC[C@H]1O.O=C(O)C(O)C(O)C(=O)O [Example 4, 10-[4-((3R)-3-Hydroxy-2-methyl-cyclohex-1-en-1-yl)-3-methyl-benzoyl]-10,11-dihydro-5H-pyrrolo[2,1-c][1,4]benzodiazepine-3-carboxylic acid methyl-pyridin-3-yl methyl-amide L-(+)-tartaric acid salt]",99%,–,–
"Cc1cc(C(=O)N2Cc3ccc(C(=O)N4CCN(c5ccncc5)CC4)n3Cc3ccccc32)ccc1C1=CCCCC1 [Example 12, {10-[4-(1-Cyclohex-1-en-1-yl)-3-methylbenzoyl]-10,11-dihydro-5H-pyrrolo[2,1--c][1,4]benzodiazepin-3-yl}[4-(4-pyridinyl)-1-piperazinyl]methanone]",98%,–,–

# Other lines, results leading:
OT % inhibition @ 100 nM [1],IC50 [1],melting point,Compound
31%,–,–,"Cc1cc(C(=O)N2Cc3ccc(C(=O)NCc4cccnc4)n3Cc3ccccc32)ccc1C1=CCCCC1 [Example 6, 10-[4-(1-Cyclohex-1-en-1-yl)-3-methylbenzoyl]-N-(3-pyridinylmethyl)-10,11-dihydro-5H-pyrrolo[2,1-c][1 ,4]benzodiazepine-3-carboxamide]"
–,4.47 nM,178 to 179 °C,"COc1cc(C2=CCCCC2)c(Cl)cc1C(=O)N1Cc2ccc(C(=O)N(C)Cc3cccnc3)n2Cc2ccccc21 [Example 1, 10-(5-Chloro-4-cyclohex-1-en-1-yl-2-me3thoxybenzoyl)-N-methyl-N-(pyridin-3-ylmethyl)-10,11-dihydro-5H-pyrrolo [2,1-c][1,4]benzodiazepine-3-carboxamide]"
84%,–,–,"Cc1cc(C(=O)N2Cc3ccc(C(=O)N(C)CCc4ccccn4)n3Cc3ccccc32)ccc1C1=CCCCC1 [Example 8, 10-[4-(1-Cyclohex-1-en-1-yl)-3-methylbenzoyl]-N-methyl-N-[2-(2-pyridinyl)ethyl]-10,11-dihydro-5H-pyrrolo[2,1-c][1 ,4]benzodiazepine-3-carboxamide]"
–,3.17 nM,–,"COc1cc(C2=CCCCC2)c(Cl)cc1C(=O)N1Cc2ccc(C(=O)N(C)Cc3cccnc3)n2Cc2ccccc21 [Example 2, 10-(5-Chloro-4-cyclohex-1-en-1-yl-2-methoxybenzoyl)-N-methyl-N-(pyridin-3-ylmethyl)-10,11-dihydro-5H-pyrrolo[2,1-c][1,4]benzodiazepine-3-carboxamide L-(+)-tartaric acid salt hemihydrate]"
87%,–,–,"Cc1cc(C(=O)N2Cc3ccc(C(=O)N(C)Cc4cccnc4)n3Cc3ccccc32)ccc1C1=CCCCC1 [Example 11, 10-[4-(1-Cyclohex-1-en-1-yl)-3-methylbenzoyl]-N-methyl-N-(3-pyridinylmethyl)-10,11-dihydro-5H-pyrrolo[2,1-c][1,4]benzodiazepine-3-carboxamide]"
34%,–,–,"Cc1cc(C(=O)N2Cc3ccc(C(=O)NCc4ccccn4)n3Cc3ccccc32)ccc1C1=CCCCC1 [Example 5, 10-[4-(1-Cyclohex-1-en-1-yl)-3-methylbenzoyl]-N-(2-pyridinylmethyl)-10,11-dihydro-5H-pyrrolo[2,1-c][1,4]benzodiazepine-3-carboxamide]"
95%,–,–,"Cc1cc(C(=O)N2Cc3ccc(C(=O)N(C)CCc4ccncc4)n3Cc3ccccc32)ccc1C1=CCCCC1 [Example 13, 10-[4-(1-Cyclohex-1-en-1-yl)-3-methylbenzoyl]-N-methyl-N-[2-(4-pyridinyl)ethyl]-10,11-dihydro-5H-pyrrolo[2,1-c][1,4]benzodiazepine-3-carboxamide]"
